# Patent US20260083768A1, “INFLAMMASOME INHIBITION FOR NEUROPROTECTION” (University of Virginia Patent Foundation, priority 2022, published 2026)
# Assays:
# retinal function = experiment: Scotopic ERG in rd10 mouse model of retinal neuronal degeneration; format: in vivo; details: rd10 mice; 60 mg/kg twice daily IP, P15 until P28; vs vehicle (PBS)
# Procedure: (§1) FIG. 8. K-9 protects retinal function. Starting at postnatal day 15 (P15) until P28, rd10 mice were treated with K-9 at 60 mg/kg twice daily via intraperitoneal injection or with an equal volume of vehicle (PBS). Retinal function was monitored with scotopic electroretinography (ERG).
# as §1, with “K-9” for “FIG. 8. K-9”, “function in the rd10 mouse model of retinal neuronal degeneration. rd10 is an autosomal missense R560C mutation in the Pde6b gene, which results in a recessively inherited retinal neuronal degeneration (FIG. 8).” for “function.”
# photoreceptors = experiment: TUNEL staining of retinal outer nuclear layer in mouse RRD model (photoreceptor death); format: in vivo, mice
# Procedure: (§2) RRD was induced in mice via subretinal injection (SRI) of 1% carboxymethylcellulose (CMC). To simulate outcomes following the clinical management of RRD, optimal conditions were determined in which SRI of CMC induced spontaneous retinal reattachment (SRR) over 10 days (RRD/SRR). K-9, 3TC, or AZT was administered via intraperitoneal (IP) injection. Inflammasome activation was monitored by cleaved caspase-1 abundance, and photoreceptor death was assessed by TUNEL staining. Retinal function was assessed by full-field scotopic electroretinography (ERG).
# (§3) A persistent RRD model was established by subretinal injection (SRI) of 3 μl 1% carboxymethyl cellulose (CMC; Refresh Liquigel, Allergan, Irvine, CA, USA). The model of RRD/SRR was achieved by SRI of 3 μl 0.03% CMC. SRIs were performed as previously described (23) using a 35-gauge needle (Ito Co., Fuji, Japan).
# (§4) NRTIs and K-9 were delivered via intraperitoneal (IP) injection in equimolar amounts. Lamivudine (3TC, 50 mg/kg) or azidothymidine (AZT, 60 mg/kg) was injected twice daily (SelleckChem, Houston, TX, USA). Kamuvudine K-9 (3-methyl-3TC) was synthesized as previously described (21) and administered either at a low dose (K-9L; 90 mg/kg daily) or a high dose (K-9H; 60 mg/kg twice daily, equimolar to NRTI doses). IP injection of phosphate buffered saline (PBS) was used as control. […]
# caspase-1 = experiment: Retinal cleaved caspase-1 immunoblot in mouse RRD model (inflammasome activation); format: in vivo, mice
# Procedure: as §2, §3, §4
# [1] = system: retinal electrical function; experiment: Full-field scotopic ERG in RRD/SRR mouse model; format: in vivo, mice
# Procedure: FIGS. 7A-7D. K-9 improves ERG functional outcomes in RRD/SRR model (A) Experiment overview: the RRD/SRR model was established day 0 (SRI of 3 μl 0.03% CMC). K-9 (60 mg/kg) or PBS was administered days 0-10 twice daily IP. Scotopic ERG was measured at baseline, as well as days 7, 11, and 14. In 7A-D, n=10-12 per group. (B) ERG waveforms representative of the K-9 and PBS groups, at baseline and day 14. (C) Amplitudes of a- and b-waves over time in the K-9 (red) and PBS (blue) groups at the stimulation intensity of 1.0 log cd sec/m2. […] Data (7C-D) is represented as mean±SEM. (D) AA from baseline for PBS (blue) and K-9 (red) groups.
# as §2, with “K-9, 3TC, or AZT was administered via intraperitoneal (IP) injection.” left out, “(ERG). […]” for “(ERG).”
# ERG was recorded at baseline, as well as days 7, 11, and 14 following SRI of CMC. Mice (n=6) were dark adapted overnight, and then ERG was measured using Ganzfeld ERG (Phoenix Laboratories). […] Responses were recorded to white-flash stimuli ranging from −1.7 to 1.0 log cd s/m2. […]
compound,measurement,setting,value
"CCOCC1OC(n2ccc(N(CC)CC)nc2=O)CS1 (stereo not shown) [K-9, 4-(diethylamino)-1-[2-(ethoxymethyl)-1,3-oxathiolan-5-yl]-1,2-dihydropyrimidin-2-one]",ERG a-wave and b-wave,retinal function,completed protection
same,degree of photoreceptor protection,"photoreceptors; day 3 RRD model, TUNEL, IP, mean±SEM, K-9 versus NRTIs P<0.05",56%±7%
same,number of TUNEL+ cells in the ONL of the retina,"photoreceptors; three days after inducing RRD, IP treatment, compared with PBS-treatment",dose-dependent reduction
same,degree of suppression of caspase-1 activation,"caspase-1; day 3 RRD model, IP, mean±SEM, K-9 versus NRTIs P<0.05",84%±1%
same,retinal cleaved caspase-1,"caspase-1; three days after inducing RRD (SRI 3 μl 1% CMC), IP treatment, compared with PBS-treated mice",dose-dependent and complete reduction
same,retinal electrical function (ERG a- and b-wave amplitudes),"[1]; RRD/SRR model (SRI 3 μl 0.03% CMC), K-9 60 mg/kg twice daily IP days 0-10, ERG days 7-14, vs PBS",preserves retinal electrical function
same,ERG parameters following retinal reattachment,"[1]; RRD/SRR model, K-9 administered during the period of retinal detachment",improvement
